Measurements taken from ChEMBL document CHEMBL5291721, “A preclinical secondary pharmacology resource illuminates target-adverse drug reaction associations of marketed drugs” (Nat Commun, 2023).

Assays:
[1] = biological target: T1, Corticotropin-releasing factor receptor 2 (Homo sapiens, UniProt Q13324)
T1 sequence (Q13324 whole entry): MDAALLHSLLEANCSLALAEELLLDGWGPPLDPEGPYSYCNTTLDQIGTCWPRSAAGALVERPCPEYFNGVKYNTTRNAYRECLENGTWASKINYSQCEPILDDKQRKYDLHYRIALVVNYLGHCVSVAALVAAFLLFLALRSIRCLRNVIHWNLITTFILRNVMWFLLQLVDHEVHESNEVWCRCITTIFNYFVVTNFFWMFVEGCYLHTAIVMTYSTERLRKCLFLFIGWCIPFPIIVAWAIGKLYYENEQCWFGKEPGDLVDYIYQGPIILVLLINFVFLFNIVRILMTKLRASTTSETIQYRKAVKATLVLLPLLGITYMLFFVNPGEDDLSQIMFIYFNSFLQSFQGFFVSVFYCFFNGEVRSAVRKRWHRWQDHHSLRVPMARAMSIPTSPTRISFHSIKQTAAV

[2] = biological target: Glucagon receptor (Homo sapiens, UniProt P47871)
Glucagon receptor, sequence (P47871 whole entry): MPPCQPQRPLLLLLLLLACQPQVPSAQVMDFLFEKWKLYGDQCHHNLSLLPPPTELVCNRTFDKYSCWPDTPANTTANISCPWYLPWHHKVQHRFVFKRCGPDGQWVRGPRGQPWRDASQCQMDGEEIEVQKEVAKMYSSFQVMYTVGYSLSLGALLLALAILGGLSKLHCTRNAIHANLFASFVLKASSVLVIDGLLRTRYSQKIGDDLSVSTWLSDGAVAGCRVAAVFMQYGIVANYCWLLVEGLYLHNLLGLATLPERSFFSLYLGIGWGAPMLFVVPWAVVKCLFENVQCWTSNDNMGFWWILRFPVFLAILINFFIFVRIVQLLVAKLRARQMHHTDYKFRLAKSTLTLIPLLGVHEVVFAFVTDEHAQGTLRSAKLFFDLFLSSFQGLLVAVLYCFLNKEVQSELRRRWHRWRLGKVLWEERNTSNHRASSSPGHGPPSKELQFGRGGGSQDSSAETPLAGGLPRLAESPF

[3] = biological target: T2, Neuropeptide Y receptor type 2 (Homo sapiens, UniProt P49146)
T2 sequence (P49146 whole entry): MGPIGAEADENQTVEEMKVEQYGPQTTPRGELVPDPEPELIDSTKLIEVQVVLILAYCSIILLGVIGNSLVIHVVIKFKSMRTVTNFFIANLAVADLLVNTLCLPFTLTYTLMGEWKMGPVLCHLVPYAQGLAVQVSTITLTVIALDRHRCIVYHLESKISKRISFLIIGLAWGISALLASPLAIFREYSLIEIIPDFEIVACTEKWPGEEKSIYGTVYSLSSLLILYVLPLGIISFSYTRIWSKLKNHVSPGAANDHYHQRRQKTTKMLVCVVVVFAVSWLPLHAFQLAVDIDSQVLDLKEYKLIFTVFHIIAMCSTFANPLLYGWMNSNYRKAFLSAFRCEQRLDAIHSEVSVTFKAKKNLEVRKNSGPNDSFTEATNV

[4] = biological target: Melanocortin receptor 4 (Homo sapiens, UniProt P32245)
Melanocortin receptor 4, sequence (P32245 whole entry): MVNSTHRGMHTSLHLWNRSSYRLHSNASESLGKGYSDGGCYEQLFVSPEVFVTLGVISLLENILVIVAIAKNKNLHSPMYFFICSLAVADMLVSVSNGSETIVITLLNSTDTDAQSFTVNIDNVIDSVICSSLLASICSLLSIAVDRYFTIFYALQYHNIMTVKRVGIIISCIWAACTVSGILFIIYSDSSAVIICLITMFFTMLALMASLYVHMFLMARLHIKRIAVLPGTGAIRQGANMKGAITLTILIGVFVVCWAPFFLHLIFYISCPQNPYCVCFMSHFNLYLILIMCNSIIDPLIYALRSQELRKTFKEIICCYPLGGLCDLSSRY

[5] = biological target: Sodium channel protein type 5 subunit alpha (Homo sapiens, UniProt Q14524); type: functional, cell-based
Sodium channel protein type 5 subunit alpha, sequence (Q14524 whole entry): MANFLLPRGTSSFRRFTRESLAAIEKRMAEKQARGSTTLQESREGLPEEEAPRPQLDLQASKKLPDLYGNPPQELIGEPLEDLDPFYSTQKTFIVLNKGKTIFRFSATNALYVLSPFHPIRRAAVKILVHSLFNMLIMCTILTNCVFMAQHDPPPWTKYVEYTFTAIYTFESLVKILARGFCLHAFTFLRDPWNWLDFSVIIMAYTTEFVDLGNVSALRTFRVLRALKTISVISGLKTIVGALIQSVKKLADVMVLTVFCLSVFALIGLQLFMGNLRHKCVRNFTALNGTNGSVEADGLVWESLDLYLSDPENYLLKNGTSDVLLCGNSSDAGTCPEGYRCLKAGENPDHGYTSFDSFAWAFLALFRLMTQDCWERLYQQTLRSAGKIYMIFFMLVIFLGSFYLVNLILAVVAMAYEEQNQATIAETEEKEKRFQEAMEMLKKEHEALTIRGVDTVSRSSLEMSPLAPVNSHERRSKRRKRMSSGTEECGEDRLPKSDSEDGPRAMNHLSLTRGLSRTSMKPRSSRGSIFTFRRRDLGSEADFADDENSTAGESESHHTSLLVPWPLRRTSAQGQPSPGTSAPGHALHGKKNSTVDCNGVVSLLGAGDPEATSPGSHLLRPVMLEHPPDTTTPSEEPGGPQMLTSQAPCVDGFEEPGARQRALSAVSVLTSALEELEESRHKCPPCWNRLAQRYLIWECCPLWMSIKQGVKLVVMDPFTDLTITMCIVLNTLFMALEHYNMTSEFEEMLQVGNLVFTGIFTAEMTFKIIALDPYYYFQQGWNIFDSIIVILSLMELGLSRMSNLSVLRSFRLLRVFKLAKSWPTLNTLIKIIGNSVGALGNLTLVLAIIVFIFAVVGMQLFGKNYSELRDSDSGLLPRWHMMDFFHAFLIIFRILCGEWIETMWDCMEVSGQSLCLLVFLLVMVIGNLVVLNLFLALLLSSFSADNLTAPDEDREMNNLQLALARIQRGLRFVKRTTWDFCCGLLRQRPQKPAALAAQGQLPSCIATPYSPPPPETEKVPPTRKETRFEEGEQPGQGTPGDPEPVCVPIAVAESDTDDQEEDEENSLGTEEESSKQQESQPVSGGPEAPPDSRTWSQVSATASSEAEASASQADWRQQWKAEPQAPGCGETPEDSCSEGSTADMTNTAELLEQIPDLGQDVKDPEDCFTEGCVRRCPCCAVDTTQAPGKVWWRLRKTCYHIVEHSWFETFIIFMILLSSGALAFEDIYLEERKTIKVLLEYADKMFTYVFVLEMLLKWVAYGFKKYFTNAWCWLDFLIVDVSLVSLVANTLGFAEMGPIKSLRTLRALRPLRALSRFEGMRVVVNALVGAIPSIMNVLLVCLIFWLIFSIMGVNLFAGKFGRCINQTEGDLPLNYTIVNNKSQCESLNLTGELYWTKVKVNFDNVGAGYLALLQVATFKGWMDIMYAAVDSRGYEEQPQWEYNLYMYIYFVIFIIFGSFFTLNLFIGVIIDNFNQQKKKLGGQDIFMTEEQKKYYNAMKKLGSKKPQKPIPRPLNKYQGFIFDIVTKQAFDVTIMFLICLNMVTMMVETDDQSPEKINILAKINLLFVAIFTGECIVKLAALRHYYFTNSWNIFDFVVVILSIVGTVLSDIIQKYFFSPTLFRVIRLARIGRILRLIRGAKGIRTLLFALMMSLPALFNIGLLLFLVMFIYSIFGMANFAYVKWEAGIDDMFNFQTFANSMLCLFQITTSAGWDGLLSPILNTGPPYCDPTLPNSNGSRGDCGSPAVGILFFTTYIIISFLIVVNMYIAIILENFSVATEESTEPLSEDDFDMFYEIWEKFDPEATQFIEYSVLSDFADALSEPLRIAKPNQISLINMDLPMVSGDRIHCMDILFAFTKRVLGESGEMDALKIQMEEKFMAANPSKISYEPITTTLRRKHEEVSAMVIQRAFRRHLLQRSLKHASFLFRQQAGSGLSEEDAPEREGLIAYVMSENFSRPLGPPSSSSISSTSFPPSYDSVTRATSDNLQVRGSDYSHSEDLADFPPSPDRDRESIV

[6] = biological target: T3, Alpha-1A adrenergic receptor (Homo sapiens, UniProt P35348)
T3 sequence (P35348 whole entry): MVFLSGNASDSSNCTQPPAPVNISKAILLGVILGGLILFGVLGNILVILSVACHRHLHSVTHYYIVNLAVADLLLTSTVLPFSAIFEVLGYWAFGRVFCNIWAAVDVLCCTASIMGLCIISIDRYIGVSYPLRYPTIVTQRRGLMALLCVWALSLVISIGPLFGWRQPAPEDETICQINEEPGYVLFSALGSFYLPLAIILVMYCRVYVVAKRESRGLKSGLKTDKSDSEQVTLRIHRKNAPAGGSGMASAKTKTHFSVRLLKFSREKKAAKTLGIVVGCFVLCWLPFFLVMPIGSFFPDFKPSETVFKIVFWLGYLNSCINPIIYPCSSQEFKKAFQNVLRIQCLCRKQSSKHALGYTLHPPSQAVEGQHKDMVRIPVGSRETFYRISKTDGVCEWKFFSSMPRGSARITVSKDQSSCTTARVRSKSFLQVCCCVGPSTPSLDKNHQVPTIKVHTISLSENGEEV

[7] = biological target: Beta-3 adrenergic receptor (Homo sapiens, UniProt P13945)
Beta-3 adrenergic receptor, sequence (P13945 whole entry): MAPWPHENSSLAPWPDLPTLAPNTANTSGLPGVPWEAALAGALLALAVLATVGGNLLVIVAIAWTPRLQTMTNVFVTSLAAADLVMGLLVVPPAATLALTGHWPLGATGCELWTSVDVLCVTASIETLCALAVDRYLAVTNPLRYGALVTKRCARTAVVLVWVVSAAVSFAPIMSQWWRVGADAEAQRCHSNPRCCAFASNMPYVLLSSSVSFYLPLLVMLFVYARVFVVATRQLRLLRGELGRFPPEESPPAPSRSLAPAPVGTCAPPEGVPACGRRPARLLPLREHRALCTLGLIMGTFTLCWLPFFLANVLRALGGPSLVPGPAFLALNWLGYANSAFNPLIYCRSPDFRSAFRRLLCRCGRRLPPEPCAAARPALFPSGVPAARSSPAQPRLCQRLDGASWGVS

[8] = biological target: T4, Androgen receptor (Homo sapiens, UniProt P10275)
T4 sequence (P10275 whole entry): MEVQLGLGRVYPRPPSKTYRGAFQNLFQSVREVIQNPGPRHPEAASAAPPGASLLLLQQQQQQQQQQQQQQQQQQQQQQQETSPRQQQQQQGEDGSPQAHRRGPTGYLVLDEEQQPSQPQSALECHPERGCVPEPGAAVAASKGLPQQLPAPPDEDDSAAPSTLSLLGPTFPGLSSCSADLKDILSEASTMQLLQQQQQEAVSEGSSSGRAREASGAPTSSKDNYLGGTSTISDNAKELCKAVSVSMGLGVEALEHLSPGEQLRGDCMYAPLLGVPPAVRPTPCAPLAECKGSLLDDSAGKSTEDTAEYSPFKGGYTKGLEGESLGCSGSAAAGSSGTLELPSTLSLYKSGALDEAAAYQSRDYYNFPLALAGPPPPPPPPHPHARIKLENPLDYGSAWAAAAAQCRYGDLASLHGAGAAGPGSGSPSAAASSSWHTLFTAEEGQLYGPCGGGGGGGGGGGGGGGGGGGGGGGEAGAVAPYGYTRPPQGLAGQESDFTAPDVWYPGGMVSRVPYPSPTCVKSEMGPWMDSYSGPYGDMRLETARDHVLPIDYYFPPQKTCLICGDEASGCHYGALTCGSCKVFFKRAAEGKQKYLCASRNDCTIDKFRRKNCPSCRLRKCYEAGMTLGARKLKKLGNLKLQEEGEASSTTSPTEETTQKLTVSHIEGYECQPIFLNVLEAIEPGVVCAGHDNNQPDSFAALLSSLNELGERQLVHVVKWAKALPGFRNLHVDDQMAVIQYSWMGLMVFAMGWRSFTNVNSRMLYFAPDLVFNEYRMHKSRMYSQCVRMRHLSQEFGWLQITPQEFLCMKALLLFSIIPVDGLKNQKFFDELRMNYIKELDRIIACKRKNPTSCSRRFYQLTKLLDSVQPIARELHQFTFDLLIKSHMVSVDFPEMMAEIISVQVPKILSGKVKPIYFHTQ

[9] = biological target: 5-hydroxytryptamine receptor 2A (Homo sapiens, UniProt P28223); type: functional, cell-based
5-hydroxytryptamine receptor 2A, sequence (P28223 whole entry): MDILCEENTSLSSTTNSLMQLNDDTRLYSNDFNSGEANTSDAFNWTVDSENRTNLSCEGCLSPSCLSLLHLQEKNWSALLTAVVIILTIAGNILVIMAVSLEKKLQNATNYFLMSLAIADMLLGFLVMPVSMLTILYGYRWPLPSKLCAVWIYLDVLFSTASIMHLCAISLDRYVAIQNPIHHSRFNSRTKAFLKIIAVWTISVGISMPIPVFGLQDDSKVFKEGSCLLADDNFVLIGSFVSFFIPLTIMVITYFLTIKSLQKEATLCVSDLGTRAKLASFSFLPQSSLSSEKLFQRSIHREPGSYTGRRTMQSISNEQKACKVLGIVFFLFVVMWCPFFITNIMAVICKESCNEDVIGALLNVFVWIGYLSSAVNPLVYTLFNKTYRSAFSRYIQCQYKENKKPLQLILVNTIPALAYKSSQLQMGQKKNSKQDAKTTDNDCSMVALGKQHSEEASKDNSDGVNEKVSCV

[10] = biological target: Sodium-dependent serotonin transporter (Homo sapiens, UniProt P31645)
Sodium-dependent serotonin transporter, sequence (P31645 whole entry): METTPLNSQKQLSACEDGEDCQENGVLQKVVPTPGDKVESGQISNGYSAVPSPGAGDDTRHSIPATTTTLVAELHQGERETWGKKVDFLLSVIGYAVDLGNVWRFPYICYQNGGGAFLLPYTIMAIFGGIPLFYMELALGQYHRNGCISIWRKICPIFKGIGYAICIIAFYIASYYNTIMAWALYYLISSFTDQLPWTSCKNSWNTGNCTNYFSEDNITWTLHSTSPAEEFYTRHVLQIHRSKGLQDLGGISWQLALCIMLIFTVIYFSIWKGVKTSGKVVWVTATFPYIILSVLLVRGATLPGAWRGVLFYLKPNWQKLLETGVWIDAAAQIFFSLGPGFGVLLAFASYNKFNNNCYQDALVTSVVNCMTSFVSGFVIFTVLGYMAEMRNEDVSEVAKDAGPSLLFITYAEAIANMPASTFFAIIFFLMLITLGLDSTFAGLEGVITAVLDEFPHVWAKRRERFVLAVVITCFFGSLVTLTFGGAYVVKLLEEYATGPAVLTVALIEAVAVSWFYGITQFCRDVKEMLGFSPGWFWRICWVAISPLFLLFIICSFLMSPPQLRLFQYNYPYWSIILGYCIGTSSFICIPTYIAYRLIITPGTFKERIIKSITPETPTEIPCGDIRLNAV

[11] = biological target: Muscarinic acetylcholine receptor M3 (Homo sapiens, UniProt P20309)
Muscarinic acetylcholine receptor M3, sequence (P20309 whole entry): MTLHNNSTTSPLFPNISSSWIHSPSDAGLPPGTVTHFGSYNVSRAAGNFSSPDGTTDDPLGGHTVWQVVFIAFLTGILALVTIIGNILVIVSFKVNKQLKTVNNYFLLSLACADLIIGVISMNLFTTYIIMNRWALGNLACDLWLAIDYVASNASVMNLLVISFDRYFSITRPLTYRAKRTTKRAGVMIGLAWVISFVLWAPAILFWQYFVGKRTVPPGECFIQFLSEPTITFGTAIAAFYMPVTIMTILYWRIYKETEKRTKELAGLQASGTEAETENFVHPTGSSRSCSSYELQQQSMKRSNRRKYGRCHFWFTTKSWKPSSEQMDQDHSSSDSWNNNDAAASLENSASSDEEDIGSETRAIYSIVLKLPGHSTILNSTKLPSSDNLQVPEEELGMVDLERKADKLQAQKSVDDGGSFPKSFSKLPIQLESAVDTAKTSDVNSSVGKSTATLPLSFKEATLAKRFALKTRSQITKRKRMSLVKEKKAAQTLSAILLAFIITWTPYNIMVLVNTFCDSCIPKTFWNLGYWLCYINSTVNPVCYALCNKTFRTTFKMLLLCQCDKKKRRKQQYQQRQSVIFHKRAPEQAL
Note: assay procedure not described here.

SMILES | AC50 [1] | AC50 [2] | AC50 [3] | AC50 [4] | AC50 [5] | AC50 [6] | AC50 [7] | AC50 [8] | AC50 [9] | AC50 [10] | AC50 [11]
CC1(C)S[C@@H]2[C@H](NC(=O)[C@H](N)c3ccc(O)cc3)C(=O)N2[C@H]1C(=O)O [AMOXICILLIN] | > 30 µM | > 30 µM | > 30 µM | > 30 µM | > 30 µM | > 10 µM | > 30 µM |  |  |  | 
Cc1ccc([C@@H]2O[C@H](CO)[C@@H](O)[C@H](O)[C@H]2O)cc1Cc1ccc(-c2ccc(F)cc2)s1 [CANAGLIFLOZIN ANHYDROUS] |  |  |  |  | > 50 µM |  |  | > 30 µM |  |  | 
C=C(C)[C@@H]1CCC(C)=C[C@H]1c1c(O)cc(CCCCC)cc1O [CANNABIDIOL] |  |  |  |  | > 10 µM |  |  |  | 4.7 µM | > 30 µM | > 30 µM
CNCC[C@H](Oc1cccc2ccccc12)c1cccs1 [DULOXETINE] |  |  |  | 17.8 µM | 5.3 µM |  |  |  |  |  | > 30 µM
C[C@H]1Oc2cc(cnc2N)-c2c(nn(C)c2C#N)CN(C)C(=O)c2ccc(F)cc21 [LORLATINIB] |  |  |  |  | > 30 µM |  |  |  | > 30 µM | > 30 µM | > 30 µM
COc1ccnc(C[S+]([O-])c2nc3ccc(OC(F)F)cc3[nH]2)c1OC (centres undefined) [PANTOPRAZOLE] | > 30 µM | > 30 µM | > 30 µM | > 30 µM |  | 10.6 µM | > 30 µM |  |  |  | 
CNC[C@H](O)c1cccc(O)c1 [PHENYLEPHRINE] | > 30 µM | > 30 µM | > 30 µM | > 30 µM | > 30 µM |  |  |  | > 30 µM | > 10 µM | > 30 µM
O=C1NC(=O)C(c2ccccc2)(c2ccccc2)N1 [PHENYTOIN] | > 30 µM | > 30 µM | > 30 µM | > 30 µM | > 50 µM | > 10 µM | > 30 µM |  |  |  | 
NC(=O)c1ncn([C@@H]2O[C@H](CO)[C@@H](O)[C@H]2O)n1 [RIBAVIRIN] |  |  |  | > 10 µM | > 50 µM | > 10 µM |  |  |  |  | 
O=C(Nc1c(Cl)cncc1Cl)c1ccc(OC(F)F)c(OCC2CC2)c1 [ROFLUMILAST] |  |  |  |  | > 50 µM |  |  |  | > 30 µM | > 30 µM | > 30 µM
CCCN(CCC)CCc1cccc2c1CC(=O)N2 [ROPINIROLE] | > 30 µM | > 30 µM | > 30 µM | > 30 µM |  | > 10 µM | > 30 µM |  | 7.3 µM | > 30 µM | > 30 µM
CC(C)N(CCCCOCC(=O)NS(C)(=O)=O)c1cnc(-c2ccccc2)c(-c2ccccc2)n1 [SELEXIPAG] |  |  |  |  | 45 µM | > 10 µM |  |  | 16 µM | > 30 µM | > 30 µM
CC(=O)S[C@@H]1CC2=CC(=O)CC[C@]2(C)[C@H]2CC[C@@]3(C)[C@@H](CC[C@@]34CCC(=O)O4)[C@H]12 [SPIRONOLACTONE] | > 30 µM | > 30 µM | > 30 µM | > 30 µM |  | 10.4 µM | > 30 µM |  |  |  | 
NC(=O)NS(=O)(=O)c1ccc(N)cc1 [SULFACARBAMIDE] |  |  |  |  | > 50 µM |  |  |  |  |  | 
CCCCCCCCNC(C)C(O)c1ccc(SC(C)C)cc1 (centres undefined) [SULOCTIDIL] |  |  |  |  | 7.7 µM |  |  | > 30 µM |  |  | 
CCCCNc1ccc(C(=O)OCCN(C)C)cc1 [TETRACAINE] | > 30 µM | > 30 µM | > 30 µM | > 30 µM |  | > 10 µM | > 30 µM |  |  |  | 
CC1(C)O[C@@H]2[C@@H](CO[C@@]3(COS(N)(=O)=O)OC(C)(C)O[C@@H]23)O1 [TOPIRAMATE] | > 30 µM | > 30 µM | > 30 µM | > 30 µM |  | > 10 µM | > 30 µM |  |  | > 10 µM | 
